Experimental findings from patent US6642250B2, “1,8-naphthyridin-2(1H)-one derivatives” (Grelan Pharmaceutical Co., Ltd., priority 1999, dated 2003) are described below.

Read-outs that look alike come from different tables or passages of the source.

In the test the test system is LPS-induced TNFα production in mouse peritoneal macrophages. The test can be described thus: Inhibition of TNF-α production in LPS-stimulated macrophages. To be noted: Peritoneal macrophage, LPS 0.1 μg/ml, 4 hours. The format is cell-based. Here is the method:
In order to measure inhibitory activity on LPS-induced TNFα production in mouse peritoneal macrophages according to Eur. J. Pharmacol., 230, 9-14 (1993), the following assay was employed. 1) Preparation of Mouse Peritoneal Macrophages Ten percent proteose peptone (2 ml/animal) was administered intraperitoneally to male C3H/HeN mice (6- to 8-week-old) for inducing peritoneal macrophages. Four days after the proteose peptone administration, mice were sacrificed by the dislocation of cervical vertebrate, bled with cutting of their carotid artery, douched intraperitoneally with ice-cooled RPMI 1640 (6 ml), massaged, and lavage fluids wherein peritoneal exudate cells suspended were harvested. The resulting cell suspension was centrifuged at 200×g, and obtained cell pellets were treated with a Tris-ammonium buffer for 1 minute to hemolyze erythrocyte contaminants. The resulting cells were washed twice with 10% FBS/RPMI 1640, resuspended, and seeded on 96-well plates (Sumitomo Bakelite, Japan) at 5×10^5 cells/0.2 ml/well. After pre-incubation for 2 hours in an atmosphere of 5% CO2/95% air, each well was rinsed 3 times with PBS(−) to remove non-adhesive cells. 2) Cell Treatment Each test compound was dissolved in DMSO, and then in 10% FBS/RPMI 1640 to make the final DMSO concentration 0.1%. The resultant test compound solution was used herein. After pre-incubation for 0.5 hr in the above test compound solution, an aliquot of macrophages prepared in the above (1) was admixed with LPS (E. coli serotype 0127: B8; Sigma) to adjust the final LPS concentration to 0.1 μg/ml. Four hours later, culture supernatants were harvested and stored at −80° C. Amounts of TNFα in the culture supernatants were measured with a mouse TNFα ELISA kit (Quantikine/trade name; R & D Systems) according to manuals attached to the kit. For control groups, an aliquot of macrophages prepared in the above (1) was admixed with LPS to adjust the final LPS concentration to 0.1 μg/ml and then treated in the same manner as aforementioned. The resultant samples were used in obtaining the concentration of each test compound required for 50% inhibition (IC50) to each control group.

[1] abbreviates: read-out: IC50 for inhibition of TNF-α production.
The mark [2] stands for this setting: read-out: IC50 for inhibition of TNF-α production (molar).

Usually IC50 stands for the point on the concentration scale where inhibition reaches its midpoint. As to `COc1ccc(C2CNC(=O)C2)cc1OC1CCCC1` (single isomer, unassigned) [Rolipram, rolipram, reference compound], the IC50 under setting [1] amounted to 0.37 µg/mL and the IC50 under setting [2] is approximately 1300 nM.
On the same counts, the results for `O=c1c(CCCc2ccncc2)cc2cccnc2n1-c1cccc([N+](=O)[O-])c1` [Example No. 8, 1-(3-Nitrophenyl)-3-[3-(pyridin-4-yl)propyl]-1,8-naphthyridin-2(1H)-one] are 0.34 µg/mL and approximately 880 nM.
